From US6638910B2, “Compositions and methods for controlling plant pests” (priority 1997, dated 2003)
Like-named read-outs stand apart in the source and are kept apart here. Starred links: 1 amine or outer side, 2 acyl side, 3 side chain; linkers in the order of their positions; H or OH if unused. Positions of bridges follow the written chain, without caps; N, C: chain ends. Non-standard residues stand in square brackets, D forms with d. Residues, ends and D or L forms follow the SMILES beside them. X1 = CC(C)CCCCCCCCC[C@H](CC(=O)[*:1])O[*:2]

Tests used:
Phytophthora infestans = type: in vivo; conditions: Tomato
Plasmopara viticola = assay: Greenhouse test, grape downy mildew; conditions: Chardonnay grape
Pyricularia oryzae = type: in vivo; conditions: Rice
[1] = test system: pre-adult corn rootworms (Diabrotica undecimpunctata); assay: 96-well microplate insecticidal assay, score rating; type: in vivo; conditions: Table 16; score 1 (all dead or stunted) to 4 (no dead)
Protocol: (§1) Bacillus samples were grown in a Bacillus culture media. […] One day old streaked cultures were used to inoculate 250 mL baffled shake flasks. Flasks were shaken at 200 rpm at 29° C. for 5 days. To assay insecticidal activity, 35 mL of culture broth were centrifuged at 5,200 rpm for 20 minutes and the supernatant used in microassay described below. Assays were performed in 96-well microplates. […] To assay insecticidal activity, an agar substrate was prepared for the wells of the microplate according to Marrone et al. (1985), J. Econ. Entomol. 78: 290-293. […] Deionized water was used as a negative control. Two replicates of test sample or control were used for each assay. 40 μL of supernatant sample or whole broth grown in medium 1, 2 or 3 were dispensed into each sample well. Plates were then placed in a fume hood to dry for approximately 2-3 hours until the agar solution was dried. […] The microplate was sealed with an airtight substance such as Mylar®, and each well ventilated with a pin press. The plates were incubated at 27° C. for up to 7 days. After incubation, wells were scored by noting neonate mortality or the degree of larval development. […] Scores were averaged among replicates within each sample. […] It contained the same ingredients as medium 3 without proflo cotton seed extract. All other procedures were the same as above. The test was repeated two or three times.

[2] = test system: pre-adult beet armyworms (Spodoptera exigua); assay: as above; type: in vivo; conditions: Table 16; score 1 (all dead or stunted) to 4 (no dead)
Protocol: as §1

[3] = test system: N2 strain of the nematode Caenorhabditis elegans; assay: 96-well microplate nematicidal assay, score rating; type: in vivo; conditions: Table 16; score 1 (all dead or stunted) to 4 (no dead)
Saccharomyces cerevesiae = conditions: Beeson et al. (1979) J. Antibiotics 32(8):828-833; cited from earlier work
Uncinula necator = assay: Greenhouse test, Powdery Mildew on Grape; type: in vivo
[4] = test system: fungi including Penicillium chrysogenum; conditions: Peypoux et al. (1978) Tetrahedron 34:1147-1152; cited from earlier work
Botrytis cinerea = assay: Greenhouse test, Gray Mold on Pepper; type: in vivo
E. graminis = assay: Greenhouse test, Powdery Mildew on Wheat; type: in vivo, Erysiphe graminis f. sp. graminis
Rhizoctonia solani = assay: Greenhouse test, Sheath Blight on Rice; type: in vivo

With `COCC(=O)N(c1c(C)cccc1C)C(C)C(=O)OC` (stereo not shown) [Metalaxyl] the “percent disease control, P. infestans” value (Phytophthora infestans; 10 ppm) was 77%, the “percent disease control, P. infestans” value (Phytophthora infestans; 30 ppm) was 100% and the percent disease control (Plasmopara viticola; 1 ppm) was 80% control. It also gave a percent disease control (Plasmopara viticola; 10 ppm) of 98.3% control and a percent disease control (Plasmopara viticola; 30 ppm) of 100% control.

For `O=C(Nc1ccccc1)N(Cc1ccc(Cl)cc1)C1CCCC1` [Pencycuron], the “percent disease control, P. oryzae” value (Pyricularia oryzae; 10 ppm) was 100% and the “percent disease control, P. oryzae” value (Pyricularia oryzae; 50 ppm) was 100%.

In the case of `CC(C)CCCCCCCCC[C@@H]1CC(=O)N[C@@H](CCC(=O)O)C(=O)N[C@@H](CC(C)C)C(=O)N[C@H](CC(C)C)C(=O)N[C@@H](C(C)C)C(=O)N[C@@H](CC(=O)O)C(=O)N[C@H](CC(C)C)C(=O)N[C@@H](CC(C)C)C(=O)O1` [Surfactin] (EL[dL]VD[dL]L; linker N-C via X1), the “Activity score, Corn rootworm” value [1] is reported as 2.0, the “Activity score, Beet armyworm” value [2] is reported as 4.0 and the “Activity score, C. Elegans” value [3] is reported as 4.0.

For iturin-A, the LC50 (Saccharomyces cerevesiae) is listed as 30 µg/mL.

For bacillomycin L, the LC50 (Saccharomyces cerevesiae) is given as 30 µg/mL.

In the case of `CCCCC(C#N)(Cn1cncn1)c1ccc(Cl)cc1` (stereo not shown) [Myclobutanil], the “percent disease control, U. necator” value (Uncinula necator; 10 ppm) is reported as 100% and the “percent disease control, U. necator” value (Uncinula necator; 30 ppm) is reported as 100%.

In the case of Iturin-C, the activity against fungi [4] is listed as “inactive”.

In the case of `CCCC1COC(Cn2cncn2)(c2ccc(Cl)cc2Cl)O1` (stereo not shown) [Propiconazole], the “percent disease control, B. cinerea” value (Botrytis cinerea; 5 ppm) is reported as 57%, the “percent disease control, B. cinerea” value (Botrytis cinerea; 10 ppm) is reported as 87% and the “percent disease control, E. graminis” value (E. graminis; 0.2 ppm) is reported as 54%. The “percent disease control, E. graminis” value (E. graminis; 0.5 ppm) was 100%.

For mycosubtilin, the LC50 (Saccharomyces cerevesiae) is given as 10 µg/mL.

In the case of `CCCCNC(=O)n1c(NC(=O)OC)nc2ccccc21` [Benomyl], the “percent disease control, R. solani” value (Rhizoctonia solani; 40 ppm) is reported as 77% and the “percent disease control, R. solani” value (Rhizoctonia solani; 100 ppm) is reported as 100%.
